Measurements published in patent US20070117851A1, “Liquid pharmaceutical compositions of nimodipine” (TRANSFORM PHARMACEUTICALS, INC., priority 2005, published 2007).
Values after ≈ are worked out from the molar mass of the structure shown.

Assays:
[1] = Chemical stability of nimodipine in the Table 2 composition via HPLC; assay type: physicochemical
Procedure: The chemical stability of nimodipine was measured at 40 and 60 degrees C. via HPLC in a composition described in Table 2.
FIGS. 1 and 2 show the chemical stability of nimodipine in the composition described in Table 2 at 40 and 60 degrees C., respectively. These Figures show data acquired with compositions having a pH of 5, 6, and 7, over a period of four weeks. […] Subsequent data has also been acquired over a period of 8 weeks.

[2] = Nimodipine equilibrium solubility in alcohol/solvent/water mixtures; assay type: physicochemical; conditions: 10% ethanol
Procedure: The effect of several alcohol and solvent concentrations on nimodipine solubility in water was studied. Nimodipine equilibrium solubility was tested at room temperature with the following solutions: • 1. Various % (v/v) of ethanol in 10 mM pH 6.8 citrate buffer • 2. Various % (w/w) of Cremophor® EL in 10 mM pH 6.8 citrate buffer • 3. Various % (v/v) of ethanol with 30% (w/w) Cremophor® EL in 10 mM pH 6.8 citrate buffer • 4. Various % (w/w) of propylene glycol (PG) in the solution of 30% Cremophor™ EL and 10% ethanol in citrate buffer at pH 6.8 • 5. Various % (w/w) of propylene glycol (PG) in the solution of 20% Cremophor® EL and 10% ethanol in citrate buffer at pH 6.8 • 6. Various % (w/w) of PEG 400 in the solution of 20% Cremophor® EL and 10% ethanol in citrate buffer at pH 6.8 • 7. Various % (w/w) of PEG400 in the solution of 30% Cremophor® EL and 10% ethanol in citrate buffer at pH 6.8 • 8. Various % (w/w) of mixture of PG/PEG400 at 1:1 (w/w) in the solution of 30% Cremophor® EL and 10% ethanol in citrate buffer at pH6.8 The above solutions were prepared by weight except solution 1 which the percent ethanol was mixed with citrate buffer by volume. […] Concentration of each sample was determined by HPLC based on a standard curve and the dilution factor of each samples solution. […]

Compound: COCCOC(=O)C1=C(C)NC(C)=C(C(=O)OC(C)C)C1c1cccc([N+](=O)[O-])c1 (centres unmarked) [nimodipine, 1,4-dihydro-2,6-dimethyl-4-(3-nitrophenyl)-3,5-pyridinedicarboxylic acid 2-methoxyethyl 1-methylethyl ester]
- nimodipine stability ([1]; Table 2 composition (3.0 mg/mL), 40 degrees C, pH 5, 6 and 7, four weeks, HPLC): greater than 99%
- nimodipine stability ([1]; Table 2 composition (3.0 mg/mL), 60 degrees C, pH 5, 6 and 7, four weeks, HPLC): greater than 99%
- nimodipine stability ([1]; Table 2 composition, 60 degrees C, pH=7, 8 weeks): greater than 99%
- nimodipine solubility compared with the composition comprising 30% ethanol and 30% Cremophor EL ([2]; 30% PEG 400, FIG. 7): comparable
- solubility at 24 h ([2]; aqueous with cosolvent or surfactant or cyclodextrin, thermodynamic from solid, 30% Cremophor EL, 30% PEG 400 in citrate buffer pH 6.8, room temperature, 24 hours): ~14 mg/mL (≈ 33.5 mM)
